Laboratory results from US10130630B2, “BTK inhibitors” (MERCK SHARP & DOHME CORP., priority 2014, dated 2018).
pIC50: −log10 of the molar value. Where two headings read alike, the source gives them in different places.

Legend:
[1] = test system: adenosine uptake into HeLa cells; assay: [3H]Adenosine uptake assay in HeLa cells; type: cell-based; conditions: 60 minutes uptake, read-out: ADU inhibition IC50 (adenosine uptake inhibition potency)
[2] = target: T1, BTK enzyme (full-length BTK, hBTK) (Homo sapiens, UniProt Q06187); assay: Btk enzyme activity assay (LANCE TR-FRET); type: biochemical; conditions: 50 pM hBTK, 25 μM ATP, 60 minute compound and enzyme incubation, read-out: BTK binding IC50
T1 construct: recombinant protein from baculovirus-transfected Sf9 cells: full-length BTK, 6HIS-tag cleaved; 6HIS (cleaved yes); made in house; host or cells: baculovirus-transfected Sf9 cells
T1 sequence (Q06187 whole entry): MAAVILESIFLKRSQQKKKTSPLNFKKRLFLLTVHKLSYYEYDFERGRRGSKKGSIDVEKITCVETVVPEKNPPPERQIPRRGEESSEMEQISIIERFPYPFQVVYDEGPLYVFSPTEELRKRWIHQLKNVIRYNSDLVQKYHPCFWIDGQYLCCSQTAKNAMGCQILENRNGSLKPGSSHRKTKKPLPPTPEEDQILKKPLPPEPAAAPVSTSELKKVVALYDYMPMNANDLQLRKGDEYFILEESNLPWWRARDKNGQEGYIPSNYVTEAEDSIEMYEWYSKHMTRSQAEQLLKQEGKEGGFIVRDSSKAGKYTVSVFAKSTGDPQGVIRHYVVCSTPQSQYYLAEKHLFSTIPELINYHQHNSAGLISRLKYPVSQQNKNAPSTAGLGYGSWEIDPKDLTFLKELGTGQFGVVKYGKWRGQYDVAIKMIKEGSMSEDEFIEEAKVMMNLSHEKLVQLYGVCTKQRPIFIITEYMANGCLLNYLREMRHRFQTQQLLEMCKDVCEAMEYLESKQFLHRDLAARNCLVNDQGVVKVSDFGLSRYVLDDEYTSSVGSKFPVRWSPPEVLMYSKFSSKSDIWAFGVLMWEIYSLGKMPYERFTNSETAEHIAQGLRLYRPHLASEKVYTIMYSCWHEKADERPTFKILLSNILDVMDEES
Summary of the method: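 Full-length human BTK from Sf9 cells (His-tag cleaved; 50 pM final) was preincubated 60 min with compound in pH 7.5 HEPES/MgCl2 buffer. Reaction then ran 120 min with 2 μM biotin-A5 peptide and 25 μM ATP, read by TR-FRET (Eu anti-pTyr/streptavidin-Dylight 650, 665/615 nm ratio). IC50 came from a 4-parameter fit.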

| pIC50 ([1]; Homo sapiens, HeLa) | pIC50 [2] | pIC50 [1] | SMILES |
| --- | --- | --- | --- |
| 6.43 | 9.73 | – | CCOc1cc(C(=O)Nc2cc(C#N)ccn2)cc(F)c1-c1nc(C2CCC3N(C2)C(=O)CC32CC2)n2c(Cl)cnc(N)c12 (stereo not drawn) [Compound 37, 4-[8-amino-5-chloro-3-(3′-oxohexahydro-5′H-spiro[cyclopropane-1,1′-indolizin]-6′-yl)imidazo[1,5-a]pyrazin-1-yl]-N-(4-cyanopyridin-2-yl)-3-ethoxy-5-fluorobenzamide] |
| 6.12 | 9.65 | – | CCOc1cc(C(=O)Nc2cc(C#N)ccn2)cc(F)c1-c1nc(C2CCC3N(C2)C(=O)CC32CC2)n2ccnc(N)c12 (stereo not drawn) [Compound 38, 4-[8-amino-3-(3′-oxohexahydro-5′H-spiro[cyclopropane-1,1′-indolizin]-6′-yl)imidazo[1,5-a]pyrazin-1-yl]-N-(4-cyanopyridin-2-yl)-3-ethoxy-5-fluorobenzamide] |
| 5.87 | 9.49 | – | CCOc1cc(C(=O)Nc2cc(C(F)(F)F)ccn2)ccc1-c1nc(C2CCC3N(C2)C(=O)CNC32CC2)n2ccnc(N)c12 (stereo not drawn) [Compound 39, 4-[8-amino-3-(4′-oxohexahydro-2′H,6′H-spiro[cyclopropane-1,1′-pyrido[1,2-a]pyrazin]-7′-yl)imidazol[1,5-a]pyrazin-1-yl]-3-ethoxy-N-[4-(trifluoromethyl)pyridin-2-yl]benzamide] |
| 6.77 | 9.76 | – | Nc1nccn2c([C@@H]3CC[C@H]4CNC5(CC5)C(=O)N4C3)nc(-c3ccc(C(=O)Nc4cc(C(F)(F)F)ccn4)cc3)c12 [Compound 40, 4-{8-amino-3-[(7′R,9a′S)-4′-oxohexahydro-2′H-spiro[cyclopropane-1,3′-pyrido[1,2-a]pyrazin]-7′-yl]imidazo[1,5-a]pyrazin-1-yl}-N-[4-(trifluoromethyl)pyridin-2-yl]benzamide] |
| 5.87 | 9.60 | – | COc1cc(C(=O)Nc2cc(C(F)(F)F)ccn2)ccc1-c1nc([C@@H]2CC[C@H]3CNC4(CC4)C(=O)N3C2)n2ccnc(N)c12 [Compound 41, 4-{8-amino-3-[(7′R,9a′S)-4′-oxohexahydro-2′H-spiro[cyclopropane-1,3′-pyrido[1,2-a]pyrazin]-7′-yl]imidazo[1,5-a]pyrazin-1-yl}-3-methoxy-N-[4-(trifluoromethyl)pyridin-2-yl]benzamide] |
| – | 9.64 | 5.65 | CCOc1cc(C(=O)Nc2cc(C(F)(F)F)ccn2)ccc1-c1nc(C2CCC3N(C2)C(=O)CNC32CC2)n2ccnc(N)c12 (stereo not drawn) [Compound 42, 4-[8-amino-3-(4′-oxohexahydro-2′H,6′H-spiro[cyclopropane-1,1′-pyrido[1,2-a]pyrazin]-7′-yl)imidazo[1,5-a]pyrazin-1-yl]-3-ethoxy-N-[4-(trifluoromethyl)pyridin-2-yl]benzamide] |
| – | 8.25 | 5.92 | CCOc1cc(C(=O)Nc2cc(C(F)(F)F)ccn2)ccc1-c1nc(C2CCC3N(C2)C(=O)CNC32CC2)n2ccnc(N)c12 (stereo not drawn) [Compound 43, 4-[8-amino-3-(4′-oxohexahydro-2′H,6′H-spiro[cyclopropane-1,1′-pyrido[1,2-a]pyrazin]-7′-yl)imidazo[1,5-a]pyrazin-1-yl]-3-ethoxy-N-[4-(trifluoromethyl)pyridin-2-yl]benzamide] |
| 6.11 | 9.60 | – | CCOc1cc(C(=O)Nc2cc(C(F)(F)F)ccn2)ccc1-c1nc([C@@H]2CC[C@H]3CN(CC)C4(CC4)C(=O)N3C2)n2ccnc(N)c12 [Compound 44, 4-{8-amino-3-[(7′R,9a′S)-2′-ethyl-4′-oxohexahydro-2′H-spiro[cyclopropane-1,3′-pyrido[1,2-a]pyrazin]-7′-yl]imidazo[1,5-a]pyrazin-1-yl}-3-ethoxy-N-[4-(trifluoromethyl)pyridin-2-yl]benzamide] |
| 5.80 | 9.62 | – | CCOc1cc(C(=O)Nc2cc(C(F)(F)F)ccn2)ccc1-c1nc([C@H]2CN3C(=O)C4(CC4)NC[C@@H]3CO2)n2ccnc(N)c12 [Compound 45, 4-{8-amino-3-[(3′R,9a′R)-6′-oxohexahydrospiro[cyclopropane-1,7′-pyrazino[2,1-c][1,4]oxazin]-3′-yl]imidazo[1,5-a]pyrazin-1-yl}-3-ethoxy-N-[4-(trifluoromethyl)pyridin-2-yl]benzamide] |
